Results on five compounds are retold here after article PMC11653702, “Targeting the SPC25/RIOK1/MYH9 Axis to Overcome Tumor Stemness and Platinum Resistance in Epithelial Ovarian Cancer” (Advanced Science, 2024).

One assay has as its target casein kinase II (CKII). The experiment in a line: Inhibition of endogenous CKII kinase activity. In kind it is cell-based, human. The note with it: OVCAR3 and OVCAR8 cells. As to the method:
(§1) Western Blotting: Western blotting was performed using primary antibodies detailed in Table S5 (Supporting Information). Western blotting grayscale analyses were performed using ImageJ (version 2.0.0; NIH, Bethesda, MD, USA). β-Catenin expression was quantified by determining the gray level of each band using Image J and normalized using α-tubulin.

Assay [1] deals with MYH9 phosphorylation at Ser1943. The assay can be described thus: Western blotting, phosphorylation of MYH9 at Ser1943 under CX-4945, OVCAR3 and OVCAR8. In kind it is cell-based, human. The note with it: CX-4945 6 μM, OVCAR3 and OVCAR8 cells with SPC25 overexpression or silencing. As to the method:
as §1
Figure S6. A) Exogenous IP assays performed to assess Ser/Thr phosphorylation status of MYH9-Myc in HEK293FT cells with or without SPC25-Flag expression. B) Quantification of nuclear or cellular fluorescence of reexpressed GFP-MYH9-WT with NLS2-2A and NLS2-3A mutants in MYH9-silenced OVCAR3 cells with or without SPC25 overexpression. C) qRT-PCR of MYH9 in OVCAR8 and SKOV3 cells with exogenous expression of MYH9 mutant variants. D) qRT-PCR of MYH9 in MYH9-silenced OVCAR3 and OVCAR8 cells with reexpression of MYH9-WT or MYH9-S1943A. E) qRT-PCR of CTNNB1 in MYH9-silenced OVCAR8 cells with reexpression of MYH9-WT or MYH9-S1943A under SPC25 silencing (left). TOP/FOP Flash analysis in MYH9-silenced OVCAR8 cells with reexpression of MYH9-WT or MYH9-S1943A under SPC25 silencing (right). F) Endogenous phosphorylation status of MYH9 at Ser1943 in OVCAR3 and OVCAR8 cells under escalating doses of CX-4945 examined through Western blotting. […]
For orientation: Immunoblotting shows a protein as a band on a membrane.

The subject of the next assay is patients with EOC. Set-up: method as in 2 sources, ref 59 = [59]; PMID 22204724; doi:10.1056/NEJMoa1104390; 59 R. A. Burger , M. F. Brady , M. A. Bookman , G. F. Fleming , B. J. Monk , H. Huang , R. S. Mannel , H. D. Homesley , J. Fowler , B. E. Greer , M. Boente , M. J. Birrer , S. X. Liang , G. G. Oncolog ||| ref 61, 62, 63 = [61]; PMID 25481791; doi:10.1016/S1470-2045(14)71135-0; 61 A. M. Oza , D. Cibula , A. O. Benzaquen , C. Poole , R. H. Mathijssen , G. S. Sonke , N. Colombo , J. Spacek , P. Vuylsteke , H. Hirte , S. Mahner , M. Plante , B. Schmalfeldt , H. Mackay , J. Rowb || [62]; PMID 34485111; doi:10.3389/fonc.2021.638295; 62 N. Ren , L. Zhang , J. Yu , S. Guan , X. Dai , L. Sun , M. Ying , Front. Oncol. 2021 , 11 , 638295 . 34485111 10.3389/fonc.2021.638295 PMC8414886 || [63]; PMID 27663600; doi:10.1158/1078-0432.CCR-16-1546; 63 J. M. Lee , C. J. Peer , M. Yu , L. Amable , N. Gordon , C. M. Annunziata , N. Houston , A. K. Goey , T. M. Sissung , B. Parker , L. Minasian , V. L. Chiou , R. F. Murphy , B. C. Widemann , W. D. F. The note with it: cited from earlier work; for PFS or OS during chemotherapy: PARP inhibitors during chemotherapy; for maintenance treatment benefit for patient survival: PARP inhibitors, maintenance treatment of EOC.

The next assay relates to COV644 cells. The assay can be described thus: Tumor sphere formation, XAV939, SPC25-overexpressing COV644. Type of assay: cell-based, human. The following applies: for Log(negative ratio, 2) / negative ratio / number of negative wells: XAV939 100uM, 24 wells.
In a further assay the test system is OVCAR3 cells. The assay can be described thus: Tumor sphere formation, XAV939, SPC25-overexpressing OVCAR3. In kind it is cell-based, human. The note with it: for negative ratio / number of negative wells: XAV939 100uM, 24 wells.

`O=C(O)c1ccc2c(c1)nc(Nc1cccc(Cl)c1)c1ccncc12` [CX-4945]: the “kinase activity of endogenous CKII” value at casein kinase II (CKII) is “completely inhibited”. Besides, in assay [1], the “SPC25-mediated promotion of MYH9 phosphorylation at Ser1943” value is reported as “persisted”.
Consider `NC(=O)c1cccc2cn(-c3ccc([C@@H]4CCCNC4)cc3)nc12` [niraparib], for which, in the assay on patients with EOC, the “PFS or OS during chemotherapy” value was “marginal PFS or OS enhancements” and the “maintenance treatment benefit for patient survival” value was “marked benefits”.
Regarding `O=C(c1cc(Cc2n[nH]c(=O)c3ccccc23)ccc1F)N1CCN(C(=O)C2CC2)CC1` [olaparib], in the assay with patients with EOC, the “PFS or OS during chemotherapy” value was “marginal PFS or OS enhancements” and the “maintenance treatment benefit for patient survival” value was “marked benefits”.
For the compound “bevacizumab: biological agent combined with platinum-based regimens”, the PFS prolongation in the assay with patients with EOC (added to platinum-based regimens, recurrent patients with EOC, compared with controls) is 3–4 months.
On to `Oc1nc(-c2ccc(C(F)(F)F)cc2)nc2c1CSCC2` [XAV939], for which the “enhanced stemness attributable to SPC25 overexpression (tumor sphere formation)” value with COV644 cells (SPC25-overexpressing COV644) and with OVCAR3 cells (SPC25-overexpressing OVCAR3) was “effectively mitigated the enhanced stemness” in each case. In addition, the “Log(negative ratio, 2)” value in the assay with COV644 cells (COV644-SPC25, 50 cells) turned out to be 0; in the assay with COV644 cells (COV644-SPC25, 100 cells), 0; in the assay on COV644 cells (COV644-Vector, 50 cells), 0; with COV644 cells (COV644-Vector, 100 cells) it was 0; in the assay with COV644 cells (COV644-Vector, 200 cells), 0. Moreover, the negative ratio with COV644 cells (COV644-SPC25, 50 cells) is given as 1; in the assay with COV644 cells (COV644-SPC25, 100 cells), 1; with COV644 cells (COV644-Vector, 50 cells), 1; with COV644 cells (COV644-Vector, 100 cells), 1; in the assay on COV644 cells (COV644-Vector, 200 cells), 1; in the assay on OVCAR3 cells (OVCAR3-SPC25, 50 cells), 1. The negative ratio is reported as 1 in the assay on OVCAR3 cells (OVCAR3-SPC25, 100 cells); 0.9167 with OVCAR3 cells (OVCAR3-SPC25, 200 cells); 0.875 in the assay on OVCAR3 cells (OVCAR3-SPC25, 400 cells); 0.8333 in the assay with OVCAR3 cells (OVCAR3-SPC25, 800 cells); 1 with OVCAR3 cells (OVCAR3-Vector, 50 cells); 1 in the assay on OVCAR3 cells (OVCAR3-Vector, 100 cells). The negative ratio with OVCAR3 cells (OVCAR3-Vector, 200 cells) is listed as 0.9583; in the assay on OVCAR3 cells (OVCAR3-Vector, 400 cells), 0.9167; in the assay on OVCAR3 cells (OVCAR3-Vector, 800 cells) it was 0.8333. The “number of negative wells” value in the assay with COV644 cells (COV644-SPC25, 50 cells) came out at 24; with COV644 cells (COV644-SPC25, 100 cells), 24; in the assay with COV644 cells (COV644-SPC25, 200 cells), 23; in the assay on COV644 cells (COV644-SPC25, 400 cells) it was 23; in the assay with COV644 cells (COV644-SPC25, 800 cells) it was 21; in the assay with COV644 cells (COV644-Vector, 50 cells), 24. The “number of negative wells” value in the assay with COV644 cells (COV644-Vector, 100 cells) came out at 24; with COV644 cells (COV644-Vector, 200 cells), 24; with COV644 cells (COV644-Vector, 400 cells), 23; with COV644 cells (COV644-Vector, 800 cells), 22; in the assay with OVCAR3 cells (OVCAR3-SPC25, 50 cells), 24; with OVCAR3 cells (OVCAR3-SPC25, 100 cells) it was 24. Besides, the “number of negative wells” value in the assay with OVCAR3 cells (OVCAR3-SPC25, 200 cells) came out at 22; in the assay with OVCAR3 cells (OVCAR3-SPC25, 400 cells), 21; with OVCAR3 cells (OVCAR3-SPC25, 800 cells), 20; with OVCAR3 cells (OVCAR3-Vector, 50 cells), 24; with OVCAR3 cells (OVCAR3-Vector, 100 cells), 24; with OVCAR3 cells (OVCAR3-Vector, 200 cells) it was 23. The “number of negative wells” value in the assay on OVCAR3 cells (OVCAR3-Vector, 400 cells) was determined as 22; with OVCAR3 cells (OVCAR3-Vector, 800 cells), 20.
